According to US20090137538A1, “METHOD OF TREATING ATROPHIC VAGINITIS” (priority 2006, published 2009):
Like-named read-outs stand apart in the source and are kept apart here.

How the values were obtained:
[1] = relative risk ratio vs placebo, cited from earlier work
[2] = cited from earlier work
endometrium [3] = assay: Example 6: endometrial biopsy at 6 months; type: in vivo, human; conditions: vaginal dose of 30 mg in the combination suppository, biopsy after 6 months
Source text: Five patients underwent an endometrial biopsy (EMB) after 6 months of treatment.

[4] = cited from earlier work; remark: listed apart in the source
lactobacilli = conditions: cited from earlier work
[5] = system: women with recurrent urinary tract infections; conditions: cited from earlier work
[6] = target: T1, sex hormone-binding globulin (SHBG) (Homo sapiens, UniProt P04278); conditions: unlike estradiol and estrone; cited from earlier work
T1 sequence (P04278 30-402): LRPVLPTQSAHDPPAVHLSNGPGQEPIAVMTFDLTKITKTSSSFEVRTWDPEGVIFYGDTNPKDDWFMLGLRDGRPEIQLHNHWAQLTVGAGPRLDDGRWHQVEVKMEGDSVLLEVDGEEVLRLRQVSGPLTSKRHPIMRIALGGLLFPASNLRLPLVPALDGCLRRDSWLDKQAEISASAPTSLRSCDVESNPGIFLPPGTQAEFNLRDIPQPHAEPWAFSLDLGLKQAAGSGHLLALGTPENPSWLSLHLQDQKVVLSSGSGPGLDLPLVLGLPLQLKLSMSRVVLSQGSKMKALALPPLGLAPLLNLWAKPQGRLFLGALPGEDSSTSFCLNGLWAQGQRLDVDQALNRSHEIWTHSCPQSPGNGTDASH

[7] = system: urinary urgency, urge incontinence, nocturia; conditions: vaginal therapy; cited from earlier work
menopausal women = conditions: cited from earlier work
SIV = conditions: vaginal transmission; base cream alone 75%; cited from earlier work
endometrium [8] = conditions: oral 2 mg per day, average three weeks prior to hysterectomy; cited from earlier work
[9] = vaginal ring, after vaginal administration; cited from earlier work
[10] = cited from earlier work; remark: listed apart in the source
[11] = dose of 0.5 mg, menopausal patients

In the case of `CCN(CC)CC#CCOC(=O)C(O)(c1ccccc1)C1CCCCC1` (stereo not drawn) [Oxybutynin IR, Oxybutynin], the “Any AE*” value ([1]; dose 8.8-15 mg) is listed as 1.4, the “Blurred Vision” value ([1]; dose 8.8-15 mg) is listed as 1.7 and the “Dry Mouth” value ([1]; dose 8.8-15 mg) is listed as 3.3. For the same molecule, the Dyspepsia ([1]; dose 8.8-15 mg) was 3.3 and the “Urinary Retention*” value ([1]; dose 8.8-15 mg) was 5.6.
In the case of `CC(=O)O[C@]1(C(C)=O)CC[C@H]2[C@@H]3C[C@H](C)C4=CC(=O)CC[C@]4(C)[C@H]3CC[C@@]21C` [MPA, Medroxyprogesterone Acetate], the “Lipid Profile” value ([2]; in vivo) is listed as “MPA: adversely effects lipid profile and negates the beneficial”, the Liver function ([2]; in vivo) is listed as “MPA: contraindicated in patients with liver dysfunction” and the “Sleep and Mood” value ([2]; in vivo) is listed as “MPA: can cause insomnia, mental depression, and anxiety”.
For `CC(=O)[C@H]1CC[C@H]2[C@@H]3CCC4=CC(=O)CC[C@]4(C)[C@H]3CC[C@]12C` [Progesterone, pregn-4-ene-3, 20-dione], the “effect on estrogen stimulated postmenopausal endometrium” value (endometrium [3]) is listed as “anti-proliferative effect”, the “Quality of life/menopausal symptoms” value ([2]; MP-containing HRT compared with MPA-containing regimen) is listed as “containing HRT experienced significant improvement in symptoms” and the “Cardiovascular Events” value ([2]; in vivo) is listed as “MP: has antihypertensive action and can be safely used to treat”. For the same molecule, the “Lipid Profile” value ([2]; in vivo) was “MP: does not negate the beneficial effects of estrogen and modestly”, the Liver function ([2]; in vivo) was “MP: does not effect liver enzymes or cause liver related side” and the “Sleep and Mood” value ([2]; in vivo) was “MP: improves the quality of sleep and has sedative properties”. The serum concentration ([4]; 25 mg vaginal suppository) was 7.27 ng/mL and the serum concentration ([4]; 50 mg vaginal suppository) was 8.84 ng/mL.
For `C[C@]12CC[C@@H]3c4ccc(O)cc4CC[C@H]3[C@@H]1C[C@@H](O)[C@@H]2O` [Estriol, 16-alpha, 17-beta, estra 1,3,5 (10) triene 3, 16, 17-triol], the “patients in whom lactobacilli reappeared” value (lactobacilli; after one month, no patients receiving placebo) is given as 61%, the “restoration of the population of lactobacilli” value (lactobacilli; [11]) is given as “failed to restore” and the “reduction of the requirement for antibiotics compared to those unsupplemented” value [5] is given as “up to 16 times”. For the same molecule, the “binding to sex hormone-binding globulin” value [6] was “does not bind”, the alleviating nocturia [7] was 54% and the alleviating urge incontinence [7] was 58%. The alleviating urinary urgency [7] was 56%, the “reduction of the vaginal pH” value (menopausal women; [11]) was “failed to reduce” and the “vaginal pH after therapy” value (menopausal women; menopausal women, ovules 1 mg, 24 weeks) was 4.12. The SIV infection rate (SIV) was 8.3% and the “women with hyperplastic changes on histological exam of the uteri” value (endometrium [8]) was 70.8%.
For `C#C[C@]1(O)CC[C@H]2[C@@H]3CCc4cc(O)ccc4[C@H]3CC[C@@]21C` [ethinylestradiol], the bioavailability [9] is given as “approximately 55.6%”.
For `O=C(O[C@H]1C[C@H]2CC[C@@H](C1)[N+]21CCCC1)C(O)(c1ccccc1)c1ccccc1` [Trospium], the “Any AE*” value ([1]; dose 40 mg) is given as 1.5, the Constipation ([1]; dose 40 mg) is given as 2.1 and the “Dry Mouth” value ([1]; dose 40 mg) is given as 3.2.
For `C[C@]12CC[C@@H]3c4ccc(O)cc4CC[C@H]3[C@@H]1CC[C@@H]2O` [estradiol], the “serum estradiol levels after vaginal versus oral administration” value ([10]; same dose) is given as “ten-fold higher” and the “endometrial concentrations after vaginal versus oral administration” value ([10]; same exact dose) is given as “seventy-fold higher”.
In the case of `NC(=O)C(c1ccccc1)(c1ccccc1)[C@@H]1CCN(CCc2ccc3c(c2)CCO3)C1` [Darifenacin], the “Any AE*” value ([1]; dose 7.5 mg) is listed as 1.2, the Constipation ([1]; dose 7.5 mg) is listed as 2.2 and the “Dry Mouth” value ([1]; dose 7.5 mg) is listed as 2.2. For the same molecule, the “Any AE*” value ([1]; dose 15 mg) was 1.4, the Constipation ([1]; dose 15 mg) was 2.4 and the “Dry Mouth” value ([1]; dose 15 mg) was 2.9.
